Reference: paper PMC8027081, “Structural Basis of VSIG3: The Ligand for VISTA” (Frontiers in Immunology, 2021)

T1: human VSIG3-ECD (Homo sapiens, UniProt Q5DX21)
T1 construct: gene IGSF11; extracellular domain (IgV + IgC2), signal peptide (22 aa) removed, His-tagged; RED-NHS labelled for MST; dimer in crystal
T1 sequence (Q5DX21 23-241): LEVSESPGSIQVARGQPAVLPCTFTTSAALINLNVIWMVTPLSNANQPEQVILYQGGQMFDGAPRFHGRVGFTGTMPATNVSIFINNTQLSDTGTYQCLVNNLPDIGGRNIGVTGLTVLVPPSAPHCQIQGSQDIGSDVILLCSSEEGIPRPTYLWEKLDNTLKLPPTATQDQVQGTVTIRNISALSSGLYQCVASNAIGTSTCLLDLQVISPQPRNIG


Columns and labels:
human VSIG3-ECD = biological target: T1, human VSIG3-ECD; experiment: microscale thermophoresis; assay type: binding; conditions: room temperature, 30 min; RED-NHS labelled protein
[1] = biological target: the molecule itself; experiment: crystal structure; hanging drop vapor diffusion, 4°C, 0.1 M sodium citrate tribasic dihydrate pH 5.6, 0.01 M iron(III) chloride, 10% Jeffamine M-600; VSIG3 at 3 mg/mL; 2.64 Å

| Kd (human VSIG3-ECD) | Molecule | stoichiometry N [1] |
| --- | --- | --- |
| 11.6 ± 9.12 µM | O=C(CCn1c(SCC(=O)NC2CCCC2)nc2ccccc2c1=O)NC1CCCCC1 [K284-3046] |  |
|  | human VSIG3 extracellular domain (residues 23-241) expressed in E. coli, refolded (domain or fragment, UniProt Q5DX21 23-241, looked up, VSIG3 (IgSF11), human, UniProt Q5DX21, residues 23-241 (extracellular domain without the 22-residue signal peptide); No PDB id is printed; also called VSIG3-ECD; IgSF11; not shown: His tag (from the vector pET28a)) LEVSESPGSIQVARGQPAVLPCTFTTSAALINLNVIWMVTPLSNANQPEQVILYQGGQMFDGAPRFHGRVGFTGTMPATNVSIFINNTQLSDTGTYQCLVNNLPDIGGRNIGVTGLTVLVPPSAPHCQIQGSQDIGSDVILLCSSEEGIPRPTYLWEKLDNTLKLPPTATQDQVQGTVTIRNISALSSGLYQCVASNAIGTSTCLLDLQVISPQPRNIG | 2 |
